According to patent US20220177466A1, “DEGRADERS OF KELCH-LIKE ECH-ASSOCIATED PROTEIN 1 (KEAP1)” (DANA-FARBER CANCER INSTITUTE, INC., priority 2019, published 2022):

Columns and labels:
Assay type in all cases: cell-based
KEAP1 [1] = target: T1, KEAP1 (Homo sapiens, UniProt Q14145); assay: KEAP1 degradation in wild-type (WT) MM.1S cells, immunoblot; conditions: 5 μM, 0, 2, 4 or 6 h, FIG. 3
T1 construct: endogenous in cells; host or cells: MM.1S cells
Method: (§1) MM.1S cells were treated with 0, 0.1 μM, 1 μM, or 10 μM of compound 1 or compound 4 or 0.25 μM THAL-SNS-032 (a known CDK9 degrader, as a positive control for CDK9 degradation) for 16 hours. Cells were then lysed in RIPA buffer (Sigma) containing protease/phosphatase inhibitor cocktail (Roche). The protein concentrations were measured by bicinchoninic acid assay (BCA) analysis (Pierce™). Equal amounts of protein were resolved by 4-12% Tris-Base gels (Invitrogen), and then transferred to the Immuno-Blot polyvinylidene difluoride (PVDF) membrane (BioRad), and immunoblotted with primary antibodies against KEAP1 (cell signaling), CRBN (cell signaling), CDK9 (cell signaling) and R-Actin (cell signaling), and then immunoblotted with IRDye® 800-labeled goat anti-rabbit IgG and IRDye®800-labeled goat anti-mouse IgG (LI-COR) secondary antibodies. The membranes were detected on Odyssey CLx system.
(§2) Wild-type (WT) (left panel) or CRBN−/− (right panel) MM.1 S cells were treated with 0 or 5 μM compound 1 or compound 4 for 0, 2, 4, or 6 h. Cells were lysed and immunoblotted as described above with antibodies to KEAP1 (cell signaling) and R-Actin (cell signaling).

GSPT1 = target: T2, GSPT1 (Homo sapiens, UniProt P15170); assay: Off-target degradation in MM.1S cells, immunoblot: GSPT1; conditions: 5 μM, up to 6 h, FIG. 2
T2 construct: endogenous in cells; host or cells: MM.1S cells
T2 sequence (Q96SW2 whole entry partner): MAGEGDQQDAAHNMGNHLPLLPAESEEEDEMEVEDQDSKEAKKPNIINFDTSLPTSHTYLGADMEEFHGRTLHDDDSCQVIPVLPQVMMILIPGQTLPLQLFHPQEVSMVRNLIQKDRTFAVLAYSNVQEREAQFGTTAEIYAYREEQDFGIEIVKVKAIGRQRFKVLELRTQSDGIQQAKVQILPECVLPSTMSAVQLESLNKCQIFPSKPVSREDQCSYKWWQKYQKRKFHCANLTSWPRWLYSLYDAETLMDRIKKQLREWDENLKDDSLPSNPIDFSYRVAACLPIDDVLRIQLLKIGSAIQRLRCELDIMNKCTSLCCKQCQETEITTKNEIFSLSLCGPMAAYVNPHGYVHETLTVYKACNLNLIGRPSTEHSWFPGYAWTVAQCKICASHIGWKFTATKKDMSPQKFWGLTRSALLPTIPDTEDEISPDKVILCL
T2 sequence (Q16531 whole entry partner): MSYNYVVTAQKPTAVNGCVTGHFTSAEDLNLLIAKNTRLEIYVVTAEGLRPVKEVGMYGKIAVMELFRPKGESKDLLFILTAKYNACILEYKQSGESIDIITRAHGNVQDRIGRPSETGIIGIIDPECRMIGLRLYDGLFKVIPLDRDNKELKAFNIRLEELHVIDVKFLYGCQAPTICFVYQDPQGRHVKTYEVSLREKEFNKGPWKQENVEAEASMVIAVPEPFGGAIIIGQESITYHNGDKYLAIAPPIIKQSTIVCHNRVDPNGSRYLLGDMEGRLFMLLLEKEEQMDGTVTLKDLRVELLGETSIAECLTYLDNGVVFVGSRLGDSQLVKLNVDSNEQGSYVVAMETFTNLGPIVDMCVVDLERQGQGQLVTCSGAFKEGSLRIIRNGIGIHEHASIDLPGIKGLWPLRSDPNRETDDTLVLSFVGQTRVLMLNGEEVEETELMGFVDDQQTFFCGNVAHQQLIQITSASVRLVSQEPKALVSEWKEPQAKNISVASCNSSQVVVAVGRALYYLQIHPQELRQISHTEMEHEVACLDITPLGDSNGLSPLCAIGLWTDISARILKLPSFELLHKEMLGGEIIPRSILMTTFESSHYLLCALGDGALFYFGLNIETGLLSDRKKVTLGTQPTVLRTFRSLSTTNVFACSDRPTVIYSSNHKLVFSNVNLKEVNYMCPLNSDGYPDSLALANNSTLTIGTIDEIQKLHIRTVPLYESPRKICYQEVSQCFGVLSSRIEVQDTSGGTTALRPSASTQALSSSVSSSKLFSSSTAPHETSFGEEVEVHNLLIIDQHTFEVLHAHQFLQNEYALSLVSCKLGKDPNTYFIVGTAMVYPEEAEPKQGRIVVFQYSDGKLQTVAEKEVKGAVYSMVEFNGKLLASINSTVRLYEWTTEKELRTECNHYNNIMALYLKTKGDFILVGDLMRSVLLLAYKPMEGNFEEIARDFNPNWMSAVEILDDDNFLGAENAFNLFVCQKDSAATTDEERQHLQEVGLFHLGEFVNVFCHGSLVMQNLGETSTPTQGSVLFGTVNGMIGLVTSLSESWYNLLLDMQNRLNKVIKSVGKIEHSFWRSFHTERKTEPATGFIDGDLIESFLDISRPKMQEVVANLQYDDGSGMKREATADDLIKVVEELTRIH
T2 sequence (P15170 whole entry): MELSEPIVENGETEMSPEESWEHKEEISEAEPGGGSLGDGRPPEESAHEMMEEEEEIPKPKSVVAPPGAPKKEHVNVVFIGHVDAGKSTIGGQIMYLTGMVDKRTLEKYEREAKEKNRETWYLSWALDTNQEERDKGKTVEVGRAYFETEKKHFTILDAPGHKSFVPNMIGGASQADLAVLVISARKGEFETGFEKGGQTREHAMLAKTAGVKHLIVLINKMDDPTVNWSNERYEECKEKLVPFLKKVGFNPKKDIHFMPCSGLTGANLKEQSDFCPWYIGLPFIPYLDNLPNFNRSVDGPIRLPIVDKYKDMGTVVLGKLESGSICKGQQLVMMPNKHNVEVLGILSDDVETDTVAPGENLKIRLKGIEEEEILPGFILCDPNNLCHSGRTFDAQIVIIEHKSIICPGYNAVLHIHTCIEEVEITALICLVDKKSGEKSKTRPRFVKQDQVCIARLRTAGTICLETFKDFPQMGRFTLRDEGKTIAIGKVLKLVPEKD
Method: as §1
(§3) MM.1S cells were treated with 0 or 5 μM compound 1 or compound 4 for 0, 2, 4, or 6 h. Cells were lysed and immunoblotted as described above with antibodies to KEAP1 (cell signaling), CRBN (cell signaling), IKZF1 (cell signaling), IKZF3 (cell signaling), GSPT1 (abcam) and R-Actin (cell signaling).

IKZF3 = target: T3, IKZF3 (Homo sapiens, UniProt Q9UKT9); assay: Off-target degradation in MM.1S cells, immunoblot: IKZF3; conditions: 5 μM, up to 6 h, FIG. 2
T3 construct: endogenous in cells; host or cells: MM.1S cells
T3 sequence (Q96SW2 whole entry partner): as the sequence (Q96SW2 whole entry partner) above
T3 sequence (Q16531 whole entry partner): as the sequence (Q16531 whole entry partner) above
T3 sequence (Q9UKT9 whole entry): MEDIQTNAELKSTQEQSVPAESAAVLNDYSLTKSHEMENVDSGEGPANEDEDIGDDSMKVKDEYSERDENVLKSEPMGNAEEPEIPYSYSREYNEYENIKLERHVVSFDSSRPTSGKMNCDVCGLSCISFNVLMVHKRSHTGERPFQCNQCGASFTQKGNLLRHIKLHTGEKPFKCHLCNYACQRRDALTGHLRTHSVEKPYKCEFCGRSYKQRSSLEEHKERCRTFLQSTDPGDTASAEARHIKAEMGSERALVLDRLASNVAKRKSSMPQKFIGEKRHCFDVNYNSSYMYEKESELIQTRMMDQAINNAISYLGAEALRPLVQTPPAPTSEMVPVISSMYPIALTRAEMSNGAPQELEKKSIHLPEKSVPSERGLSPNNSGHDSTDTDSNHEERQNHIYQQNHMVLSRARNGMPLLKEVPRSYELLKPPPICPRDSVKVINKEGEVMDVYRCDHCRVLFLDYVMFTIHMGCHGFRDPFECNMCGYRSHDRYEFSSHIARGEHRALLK
Method: as §1, §3

KEAP1 [2] = target: T1, KEAP1; assay: Knockdown of KEAP1 in MM.1S cells, immunoblot, concentration series, 16 h; conditions: 0.1 μM, 1 μM or 10 μM, FIG. 1
Method: as §1

KEAP1 [3] = target: T1, KEAP1; assay: KEAP1 levels after washout in MM.1S cells, immunoblot; conditions: 5 μM for 2 h, washout at 2, 4, 7 and 24 hours, FIG. 5A/5B
Method: as §1
MM.1S cells were treated with 0 or 5 μM compound 1 for 2 h, followed by washout at 2, 4, 7, and 24 hours. Cells were lysed and immunoblotted as described above with antibodies to KEAP1 and β-Actin.
MM.1S cells were treated with 0 or 5 μM compound 4 for 2 h, followed by washout at 2, 4, 7, and 24 hours. Cells were lysed and immunoblotted as described above with antibodies to KEAP1 and β-Actin.

IKZF1 = target: T4, IKZF1 (Homo sapiens, UniProt Q13422); assay: Off-target degradation in MM.1S cells, immunoblot: IKZF1; conditions: 5 μM, up to 6 h, FIG. 2
T4 construct: endogenous in cells; host or cells: MM.1S cells
T4 sequence (Q96SW2 whole entry partner): as the sequence (Q96SW2 whole entry partner) above
T4 sequence (Q16531 whole entry partner): as the sequence (Q16531 whole entry partner) above
T4 sequence (Q13422 whole entry): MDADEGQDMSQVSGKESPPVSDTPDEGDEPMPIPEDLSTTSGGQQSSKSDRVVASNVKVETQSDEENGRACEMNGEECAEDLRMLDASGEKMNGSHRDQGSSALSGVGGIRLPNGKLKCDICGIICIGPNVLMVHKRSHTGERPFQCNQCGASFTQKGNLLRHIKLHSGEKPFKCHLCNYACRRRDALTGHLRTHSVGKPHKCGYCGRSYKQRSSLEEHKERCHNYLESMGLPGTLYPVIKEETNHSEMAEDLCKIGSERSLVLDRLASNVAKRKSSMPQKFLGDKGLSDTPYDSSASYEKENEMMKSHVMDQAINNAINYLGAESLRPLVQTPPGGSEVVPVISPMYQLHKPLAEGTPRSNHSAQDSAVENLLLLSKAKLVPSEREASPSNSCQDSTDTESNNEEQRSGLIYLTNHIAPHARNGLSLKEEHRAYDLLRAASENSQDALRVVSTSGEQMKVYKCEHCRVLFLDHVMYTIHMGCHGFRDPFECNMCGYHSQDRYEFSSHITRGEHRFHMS
Method: as §1, §3

KEAP1 [4] = target: T1, KEAP1; assay: KEAP1 degradation in CRBN−/− MM.1S cells, immunoblot; conditions: 5 μM, 0, 2, 4 or 6 h, FIG. 3
Method: as §1, §2

KEAP1 [5] = target: T1, KEAP1; assay: Rescue of degrader-induced KEAP1 degradation by pretreatment in MM.1S cells, immunoblot; conditions: pretreatment 2 h (10 μM DGY-03-118, 10 μM Lenalidomide, 0.5 μM Bortezomib, 1 μM MLN4924); for rescue of the KEAP1 degradation induced by compound 1: then 5 μM compound 1 for 2 h, FIG. 4A; for rescue of the KEAP1 degradation induced by compound 4: then 5 μM compound 4 for 2 h, FIG. 4B
Method: as §1
(§4) MM.1S cells were pretreated with 10 μM DGY-03-118 (the parental compound and known KEAP1 inhibitor), 10 μM Lenalidomide (CRBN ligand), 0.5 μM Bortezomib (a proteasome inhibitor) and 1 μM MLN4924 (a neddylation inhibitor) for 2 h, and then treated with 5 μM compound 1 for 2 h. Cells were lysed and immunoblotted as described above with antibodies to KEAP1 and β-Actin.
as §4, with “compound 4” for “compound 1”

CDK9 = target: T5, CDK9 (Homo sapiens, UniProt P50750+Q96SW2); assay: CDK9 degradation in MM.1S cells, immunoblot (positive control); conditions: 0.25 μM, 16 hours, FIG. 1
T5 construct: endogenous in cells; host or cells: MM.1S cells
Method: as §1

T1 sequence (Q14145 whole entry): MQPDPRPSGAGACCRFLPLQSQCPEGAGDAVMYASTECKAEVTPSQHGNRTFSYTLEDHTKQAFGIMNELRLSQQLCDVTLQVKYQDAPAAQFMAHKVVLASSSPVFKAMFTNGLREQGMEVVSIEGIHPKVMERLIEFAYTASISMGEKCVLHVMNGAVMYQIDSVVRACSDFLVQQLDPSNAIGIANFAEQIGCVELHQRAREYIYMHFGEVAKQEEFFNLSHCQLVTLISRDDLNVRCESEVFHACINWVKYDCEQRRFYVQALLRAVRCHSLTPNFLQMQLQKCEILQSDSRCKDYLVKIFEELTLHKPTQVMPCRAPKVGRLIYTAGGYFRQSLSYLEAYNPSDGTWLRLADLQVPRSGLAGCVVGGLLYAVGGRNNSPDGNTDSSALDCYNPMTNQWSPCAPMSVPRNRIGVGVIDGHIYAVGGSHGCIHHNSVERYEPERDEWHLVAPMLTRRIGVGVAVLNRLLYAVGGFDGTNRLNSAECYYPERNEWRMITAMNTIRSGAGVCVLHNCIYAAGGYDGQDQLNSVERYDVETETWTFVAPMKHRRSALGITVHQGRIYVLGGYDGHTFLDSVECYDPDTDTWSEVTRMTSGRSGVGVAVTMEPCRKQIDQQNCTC

| SMILES | KEAP1 degradation in WT MM.1S cells (KEAP1 [1]) | degradation of potential off target GSPT1 (GSPT1) | degradation of potential off target IKZF3 (IKZF3) | degradation of KEAP1 (KEAP1 [2]) | degradation of potential off target IKZF1 (IKZF1) | KEAP1 degradation in CRBN−/− MM.1S cells (KEAP1 [4]) | rescue of the KEAP1 degradation induced by compound 1 (KEAP1 [5]) | rescue of the KEAP1 degradation induced by compound 4 (KEAP1 [5]) | CDK9 degradation (CDK9) | KEAP1 levels after washout relative to vehicle-treated cells (KEAP1 [3]) |
| --- | --- | --- | --- | --- | --- | --- | --- | --- | --- | --- |
| Nc1cccc2c1CN(C1CCC(=O)NC1=O)C2=O (stereo not drawn) [Lenalidomide] |  |  |  |  |  |  | rescued the KEAP1 degradation | rescued the KEAP1 degradation |  |  |
| NS(=O)(=O)OC[C@@H]1C[C@@H](n2ccc3c(N[C@H]4CCc5ccccc54)ncnc32)C[C@@H]1O [MLN4924] |  |  |  |  |  |  | rescued the KEAP1 degradation | rescued the KEAP1 degradation |  |  |
| CC(C)C[C@H](NC(=O)[C@H](Cc1ccccc1)NC(=O)c1cnccn1)B(O)O [Bortezomib] |  |  |  |  |  |  | rescued the KEAP1 degradation | rescued the KEAP1 degradation |  |  |

More lines, main results first:

| KEAP1 degradation in WT MM.1S cells (KEAP1 [1]) | degradation of potential off target GSPT1 (GSPT1) | degradation of potential off target IKZF3 (IKZF3) | degradation of KEAP1 (KEAP1 [2]) | degradation of potential off target IKZF1 (IKZF1) | KEAP1 degradation in CRBN−/− MM.1S cells (KEAP1 [4]) | rescue of the KEAP1 degradation induced by compound 1 (KEAP1 [5]) | rescue of the KEAP1 degradation induced by compound 4 (KEAP1 [5]) | CDK9 degradation (CDK9) | SMILES | KEAP1 levels after washout relative to vehicle-treated cells (KEAP1 [3]) |
| --- | --- | --- | --- | --- | --- | --- | --- | --- | --- | --- |
| induced KEAP1 degradation | did not induce the degradation | did not induce the degradation | induced the degradation of KEAP1 | did not induce the degradation | did not induce KEAP1 degradation |  |  |  | COc1cc(C(CC(=O)O)c2ccc(C)c(CN3C[C@@H](C)Oc4cc(CCCCCCNC(=O)COc5cccc6c5C(=O)N(C5CCC(=O)NC5=O)C6=O)ccc4S3(=O)=O)c2)cc2nnn(C)c12 (stereo partly drawn) [compound 1, 3-(3-(((4R)-7-(6-(2-((2-(2,6-dioxopiperidin-3-yl)-1,3-dioxoisoindolin-4-yl)oxy)acetamido)hexyl)-4-methyl-1,1-dioxido-3,4-dihydro-2H-benzo[b][1,4,5]oxathiazepin-2-yl)methyl)-4-methylphenyl)-3-(7-methoxy-1-methyl-1H-benzo[d][1,2,3]triazol-5-yl)propanoic Acid] | remained below levels in vehicle-treated cells 4 h after washout |
| induced KEAP1 degradation | did not induce the degradation | did not induce the degradation | induced the degradation of KEAP1 | did not induce the degradation | did not induce KEAP1 degradation |  |  |  | COc1cc(C(CC(=O)O)c2ccc(C)c(CN3C[C@@H](C)Oc4cc(CCCCCCNC(=O)COc5cc6c7c(cccc7c5)C(=O)N(C5CCC(=O)NC5=O)C6=O)ccc4S3(=O)=O)c2)cc2nnn(C)c12 (stereo partly drawn) [compound 4, 3-(3-(((4R)-7-(6-(2-((2-(2,6-dioxopiperidin-3-yl)-1,3-dioxo-2,3-dihydro-1H-benzo[de]isoquinolin-5-yl)oxy)acetamido)hexyl)-4-methyl-1,1-dioxido-3,4-dihydro-2H-benzo[b][1,4,5]oxathiazepin-2-yl)methyl)-4-methylphenyl)-3-(7-methoxy-1-methyl-1H-benzo[d][1,2,3]triazol-5-yl)propanoic Acid] | remained below levels in vehicle-treated cells even 24 h after washout |
|  |  |  |  |  |  |  |  | induced CDK9 degradation | CC(C)(C)c1cnc(CSc2cnc(NC(=O)C3CCN(CC(=O)NCCOCCOCCOCCNc4cccc5c4C(=O)N(C4CCC(=O)NC4=O)C5=O)CC3)s2)o1 (stereo not drawn) [THAL-SNS-032] |  |
